How the values were obtained:
[1] = test system: Adult normal human primary keratinocytes (tight junction integrity); assay: Transepithelial electrical resistance (TEER) of differentiated keratinocyte monolayers; format: cell-based; details: for % Change in TEER (additional increase): 24 h
Description: (§1) Adult normal human primary keratinocytes (Invitrogen, Carlsbad, Calif., USA) were maintained in EpiLife® medium with 60 μM calcium (Invitrogen) supplemented with Human Keratinocyte Growth Supplement (HKGS) (Invitrogen) (basal medium) at 5% CO2 atmosphere. To differentiate the keratinocytes, the P5-P7 cells were plated on ThinCert™ cell culture inserts (Greiner Bio-one, Frickenhausen, Germany) at density of 10^5cells/cm^2. After overnight incubation at 5% CO2 atmosphere the basal medium was aspirated and changed to differentiation medium (DM) consisting of EpiLife® medium with 1.45 mM CaCl2 supplemented with human keratinocyte growth supplement and incubated for 4 days at 5% CO2 atmosphere. DM was changed both at both the apical and basolateral side every day. Test substances were given at fourth day after starting the differentiation.
(§2) Betaine (Danisco) were dissolved in DM, and applied to apical side of differentiated keratinocytes at amounts of 0, 10, 50, 100, 250 and 500 μM. The cells were incubated for 1, 12, and 24 hours at which points TEER was measured as described below. […]
The integrity of the monolayer was verified by measuring TEER before and after each time point using Millicell-ERS system (Millipore, Billerica, Mass., US) (26). The TEER obtained from the monolayer and the insert was subtracted with background TEER obtained from the insert to yield the monolayer resistance and multiplied with the area of the insert to obtain the result as ohm×cm^2. For the experiments with betaine and probiotics the results are expressed as a percentage change in TEER (% Change in TEER) which reflects the change in the resistance in the given time point compared to a control time point, which was the same cell monolayer before applying the test substances.

[2] = test system: claudin-4 (CLDN4); assay: Real-time quantitative PCR of claudin-4 expression in differentiated keratinocytes; format: cell-based, human; details: betaine 10-500 μM, 24 h
Description: as §1, §2
The differentiated keratinocytes were treated with soluble metabolites produced by probiotics, probiotic whole bacterial cells, and bacterial cell lysates from the apical side for 1 h, 8 h and 24 h at which the TEER was measured. […]

[3] = test system: occludin (OCLN); assay: Real-time quantitative PCR of occludin expression in differentiated keratinocytes; format: cell-based, human; details: 24 h, p<0.05
Description: as §1, with “Test substances were given at fourth day after starting the differentiation.” left out
as §2
(§3) Real-time quantitative PCR of claudin-4 (CLDN4), occludin (OCLN), zonula occludens-1 (ZO-1) was done with TaqMan gene expression assays (Applied biosystems, Foster City, Calif., USA) designed for each specific gene in an amplification reaction of 20 μl according to manufacturer's instructions with 7500 Fast Real-time PCR System (Applied Biosystems). […]

[4] = test system: zonula occludens-1 (ZO-1); assay: Real-time quantitative PCR of zonula occludens-1 expression in differentiated keratinocytes; format: cell-based, human; details: betaine 10-500 μM, 24 h
Description: as §1, with “Test substances were given at fourth day after starting the differentiation.” left out
as §2, §3

C[N+](C)(C)CC(=O)O [betaine, Betaine]
% Change in TEER ([1]; 50 μM and higher concentrations of betaine, after 12 h, p<0.05 to p<0.001): remained increased
% Change in TEER ([1]; 50 μM betaine, after 1 hour, p<0.05): increased
% Change in TEER (additional increase) ([1]; 100 μM betaine, p<0.05, mean±SE): 41.8±2.8%
% Change in TEER (additional increase) ([1]; 500 μM betaine, p<0.01, mean±SE): 47.8±4.2%
% Change in TEER ([1]; lowest amount of betaine (10 μM), apical side): remained at the basal level
Expression of CLDN4 [2]: remained similar to the basal levels
Expression of OCLN ([3]; 100 μM betaine): decreased
Expression of OCLN ([3]; 250 μM betaine): decreased
Expression of ZO-1 [4]: remained similar to the basal levels
